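Each compound was tested at five concentrations against cells in 96-well plates for 48 hours. Abbreviation: GI50, concentration required for 50% inhibition of growth.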 The source made the active and inactive calls. Cut-off read from the data, not from the text of the source: active = GI50 up to about 1.1 µM and inactive = higher. Residues, ends and D or L forms follow the SMILES beside them. *: point of attachment. Boc = CC(C)(C)OC(=O)*; OBn = c1ccc(CO*)cc1; Bn = c1ccc(C*)cc1
How the values were obtained:
Assay in all cases: NCI tumour cell line growth inhibition, 48 h
[1] = test system: CAKI-1
[2] = test system: EKVX
[3] = test system: HCT-116
[4] = test system: HOP-62
[5] = test system: LOX IMVI
[6] = test system: MDA-MB-435
[7] = test system: MDA-N
[8] = test system: Malme-3M
[9] = test system: OVCAR-3
[10] = test system: OVCAR-5
[11] = test system: RXF 393
[12] = test system: SF-268
[13] = test system: SK-MEL-28
[14] = test system: SNB-19
[15] = test system: SR
[16] = test system: UACC-62
[17] = test system: CCRF-CEM
[18] = test system: KM12
[19] = test system: BT-549

Measured: GI50

C[C@@H]1C(O)CC[C@H](C)C12CC=CC2=O (stereo partly drawn)
inactive: [1] > 100 µM | [2] > 100 µM | [3] > 100 µM | [4] > 100 µM | [5] > 100 µM | [6] > 100 µM | [7] > 100 µM | [8] > 100 µM | [9] > 100 µM | [10] > 100 µM | [11] > 100 µM | [12] > 100 µM | [13] > 100 µM | [14] > 100 µM | [15] > 100 µM | [16] > 100 µM

COc1ccc2c3c(c(C(=O)O)oc13)CCC2
inactive: [17] > 100 µM | [2] > 100 µM | [3] > 100 µM | [4] > 100 µM | [18] > 100 µM | [5] > 100 µM | [8] > 100 µM | [9] > 100 µM | [10] > 100 µM | [11] > 100 µM | [12] > 100 µM | [13] > 100 µM | [14] > 100 µM | [15] > 100 µM | [16] > 100 µM

O=[N+]([O-])C(/C(Cl)=C(/Cl)N1CCOCC1)=C1\Nc2ccccc2O1
inactive: [19] > 100 µM | [1] > 100 µM | [17] > 100 µM | [2] > 100 µM | [3] > 100 µM | [4] > 100 µM | [18] > 100 µM | [6] > 100 µM | [8] > 100 µM | [9] 24.4 µM | [10] > 100 µM | [12] 28.9 µM | [13] > 100 µM | [14] > 100 µM | [16] 96.2 µM

CCN(CC)Cc1ccccc1CC(=O)N1c2ccccc2C(=O)Nc2cccnc21
inactive: [1] > 100 µM | [17] 33.7 µM | [2] > 100 µM | [3] 38.8 µM | [4] 64 µM | [18] > 100 µM | [5] > 100 µM | [6] > 100 µM | [7] > 100 µM | [8] > 100 µM | [9] > 100 µM | [10] > 100 µM | [11] > 100 µM | [12] > 100 µM | [13] > 100 µM | [14] > 100 µM | [15] 34.3 µM | [16] > 100 µM

C1CCC2C(C1)CCCC2NC1=NCCO1 (stereo not drawn)
inactive: [1] > 100 µM | [17] > 100 µM | [2] > 100 µM | [3] > 100 µM | [4] > 100 µM | [18] > 100 µM | [5] > 100 µM | [6] > 100 µM | [7] > 100 µM | [8] > 100 µM | [9] > 100 µM | [10] > 100 µM | [11] 86.7 µM | [12] > 100 µM | [13] 76 µM | [14] > 100 µM | [15] 45 µM | [16] > 100 µM

CC(C)CC(NC(=O)C(Cc1ccccc1)NC(=O)C(COCc1ccccc1)NC(=O)OC(C)(C)C)C(=O)OCc1ccccc1 (stereo not drawn) (Boc-Ser(Bn)-Phe-Leu-OBn; configuration not given here)
inactive: [1] 30 µM | [17] 26.2 µM | [2] 24.8 µM | [3] 18.5 µM | [4] 49.4 µM | [5] 19.8 µM | [6] > 10 µM | [7] 69 µM | [8] 78.2 µM | [9] 20 µM | [10] 39.4 µM | [12] 21.7 µM | [13] 19.5 µM | [14] > 100 µM | [15] 20.2 µM | [16] 17.5 µM

— ChEMBL document CHEMBL1201862, “PubChem BioAssay data set” (2004)
